From US20090018134A1, “Compounds - 945” (AstraZeneca AB, priority 2007, published 2009)
Where two headings read alike, the source gives them in different places.

Target: T1, mTOR (Homo sapiens, UniProt P42345)
T1 construct: FLAG; made in house
Assay: In Vitro mTOR Kinase Assay (Echo), Test (a)(ii)
Type: biochemical
In short: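 Inhibition of truncated mTOR (1362-2549, FLAG-tagged, purified from stably transfected HEK293 cells) is measured as reduced AlphaScreen signal from a phospho-T389-recognising antibody bound to the biotinylated peptide product. Kinase incubation lasts 2 hours at room temperature. Potency is given as IC50.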

[1] = table of enzyme assay Test (a)(ii), read-out: Test (a)(ii) IC50

T1 sequence (P42345 1362-2549): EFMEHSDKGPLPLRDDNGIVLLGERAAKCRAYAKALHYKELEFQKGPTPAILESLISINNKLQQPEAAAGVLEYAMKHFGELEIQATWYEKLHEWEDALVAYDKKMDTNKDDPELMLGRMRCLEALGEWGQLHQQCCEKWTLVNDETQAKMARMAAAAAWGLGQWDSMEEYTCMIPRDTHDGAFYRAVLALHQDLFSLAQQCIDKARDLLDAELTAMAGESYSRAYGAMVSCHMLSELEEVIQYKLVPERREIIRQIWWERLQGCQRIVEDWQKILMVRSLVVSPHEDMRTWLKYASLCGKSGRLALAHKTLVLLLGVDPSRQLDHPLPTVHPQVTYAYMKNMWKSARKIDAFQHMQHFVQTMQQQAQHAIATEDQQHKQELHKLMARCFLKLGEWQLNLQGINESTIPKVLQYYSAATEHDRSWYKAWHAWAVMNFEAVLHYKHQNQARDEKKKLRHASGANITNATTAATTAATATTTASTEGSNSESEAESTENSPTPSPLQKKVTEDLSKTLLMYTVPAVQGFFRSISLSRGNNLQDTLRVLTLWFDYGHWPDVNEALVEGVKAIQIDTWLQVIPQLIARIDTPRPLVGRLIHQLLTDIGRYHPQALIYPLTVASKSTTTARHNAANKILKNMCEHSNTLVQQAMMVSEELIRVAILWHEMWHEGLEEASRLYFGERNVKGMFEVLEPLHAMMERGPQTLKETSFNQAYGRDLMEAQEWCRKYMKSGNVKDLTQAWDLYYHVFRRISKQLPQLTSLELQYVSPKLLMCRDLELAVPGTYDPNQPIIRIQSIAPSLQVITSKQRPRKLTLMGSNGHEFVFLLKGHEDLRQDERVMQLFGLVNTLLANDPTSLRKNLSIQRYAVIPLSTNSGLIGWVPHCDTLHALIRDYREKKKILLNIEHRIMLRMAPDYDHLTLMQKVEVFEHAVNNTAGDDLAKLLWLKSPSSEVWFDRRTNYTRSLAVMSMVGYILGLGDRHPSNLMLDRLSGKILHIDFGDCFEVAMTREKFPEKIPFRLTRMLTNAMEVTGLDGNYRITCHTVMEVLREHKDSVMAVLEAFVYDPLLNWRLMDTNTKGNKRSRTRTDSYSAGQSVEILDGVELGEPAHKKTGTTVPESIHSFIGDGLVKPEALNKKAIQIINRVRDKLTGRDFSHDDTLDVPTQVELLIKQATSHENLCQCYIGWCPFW

SMILES | IC50 [1] [nM] | IC50 (read-out: mTOR Kinase Assay (Echo)) [nM]
CCNC(=S)Nc1ccc(-c2nc(N3CCOC[C@@H]3C)cc(C3(S(C)(=O)=O)CC3)n2)cc1 [Example 35a, 3-ethyl-1-[4-[4-[(3S)-3-methylmorpholin-4-yl]-6-(1-methylsulfonylcyclopropyl)pyrimidin-2-yl]phenyl]thiourea] | 5.52 | 
Cc1ccc(S(=O)(=O)C2(c3cc(N4CCOC[C@@H]4C)nc(-c4ccc(NC(=O)NCC(F)F)cc4)n3)CC2)cc1 [Example 95p, 3-(2,2-difluoroethyl)-1-[4-[4-[(3S)-3-methylmorpholin-4-yl]-6-[1-(4-methylphenyl)sulfonylcyclopropyl]pyrimidin-2-yl]phenyl]urea] | 5.43 | 
C[C@H]1COCCN1c1cc(C2(S(=O)(=O)C3CC3)CCNCC2)nc(-c2ccc(NC(=O)NC3CC3)cc2)n1 [Example 21, 3-Cyclopropyl-1-[4-[4-(4-cyclopropylsulfonylpiperidin-4-yl)-6-[(3S)-3-methylmorpholin-4-yl]pyrimidin-2-yl]phenyl]urea] | 25.3 | 
Cc1nn(C(F)F)c(C)c1S(=O)(=O)C1(c2cc(N3CCOC[C@@H]3C)nc(-c3ccc(NC(=O)NCC(F)F)cc3)n2)CC1 [Example 75d, 3-(2,2-difluoroethyl)-1-[4-[4-[1-[1-(difluoromethyl)-3,5-dimethylpyrazol-4-yl]sulfonylcyclopropyl]-6-[(3S)-3-methylmorpholin-4-yl]pyrimidin-2-yl]phenyl]urea] | 39.9 | 
C[C@H]1COCCN1c1cc(C2(S(C)(=O)=O)CCCC2)nc(-c2ccc(NC(=O)NCCO)nc2)n1 [Example 14q, 3-(2-hydroxyethyl)-1-[5-[4-[(3S)-3-methylmorpholin-4-yl]-6-(1-methylsulfonylcyclopentyl)pyri-midin-2-yl]pyridin-2-yl]urea] | 26.5 | 
CCNC(=O)Nc1ccc(-c2nc(N3[C@H](C)COC[C@@H]3C)cc(C3(S(=O)(=O)c4ccccc4)CC3)n2)cc1 [Example 73, 1-[4-[4-[1-(Benzenesulfonyl)cyclopropyl]-6-[(3R,5S)-3,5-dimethylmorpholin-4-yl]pyrimidin-2-yl]phenyl]-3-ethylurea] | 7.44 | 
CNC(=O)Nc1ccc(-c2nc(N3CCOCC3)cc(C3(S(=O)(=O)CCO)CC3)n2)cc1 [Example 47a, 1-[4-[4-[1-(2-hydroxyethylsulfonyl)cyclopropyl]-6-morpholin-4-ylpyrimidin-2-yl]phenyl]-3-methylurea] | 5.4 | 
C[C@H]1COCCN1c1cc(C2(S(=O)(=O)c3ccccc3C(F)(F)F)CC2)nc(-c2ccc(NC(=O)NC3CC3)cc2)n1 [Example 10, 3-Cyclopropyl-1-[4-[4-[(3S)-3-methylmorpholin-4-yl]-6-[1-[2-(trifluoromethyl)phenyl]sulfonylcyclopropyl]pyrimidin-2-yl]phenyl]urea] |  | 4.48
Cc1csc(S(=O)(=O)C2(c3cc(N4CCOC[C@@H]4C)nc(-c4ccc(NC(=O)Nc5ccc(C(F)(F)F)cc5)cc4)n3)CC2)n1 [Example 25j, 1-[4-[4-[(3S)-3-methylmorpholin-4-yl]-6-[1-[(4-methyl-1,3-thiazol-2-yl)sulfonyl]cyclopropyl]pyrimidin-2-yl]phenyl]-3-[4-(trifluoromethyl)phenyl]urea] | 5.76 | 
Cc1nc(S(=O)(=O)C2(c3cc(N4CCOC[C@@H]4C)nc(-c4ccc(NC(=O)NCCF)cc4)n3)CC2)sc1C [Example 80a, 1-[4-[4-[1-[(4,5-dimethyl-1,3-thiazol-2-yl)sulfonyl]cyclopropyl]-6-[(3S)-3-methylmorpholin-4-yl]pyrimidin-2-yl]phenyl]-3-(2-fluoroethyl)urea] | 14.6 | 
CC(C)NC(=O)Nc1ccc(-c2nc(N3CCOC[C@@H]3C)cc(C3(S(=O)(=O)c4ccc(Cl)cc4)CC3)n2)cc1 [Example 27d, 1-[4-[4-[1-(4-chlorophenyl)sulfonylcyclopropyl]-6-[(3S)-3-methylmorpholin-4-yl]pyrimidin-2-yl]phenyl]-3-propan-2-ylurea] | 3.07 | 
